Measurements reported in patent US10023570B2 (Array BioPharma, Inc., priority 2015, dated 2018).
Structures can show the parent of a compound that is named as a salt. Where two headings read alike, the source gives them in different places.

Assays:
[1] = target: N-terminal GST tagged recombinant human RET cytoplasmic domain (aa 658-end), wild type RET kinase (Homo sapiens (Human), UniProt P07949); test: RET Enzyme Assay (HTRF KinEASE-TK), wild type RET; format: biochemical
[2] = target: Kif5b-RET fusion protein in HEK-293 cells (Homo sapiens, UniProt P07949); test: cell-based
Protocol: The cellular potency of a compound inhibiting RET kinase was determined in HEK-293 cells expressing a Kif5b-RET fusion protein. Briefly, HEK-293 cells expressing a Kif5b-RET fusion protein were plated at 50K cells/well in 96 well poly-D-Lysine coated plates the day prior to the assay. The cells were incubated for 1 hour with test compound in DMEM (Dulbecco's Modified Eagle Medium) at a final DMSO concentration of 0.5%. […] After 1 hour the media was removed, the cells were fixed with 3.8% formaldehyde for 20 min, washed with PBS, and permeabilized for 10 min with 100% methanol. […] All antibodies were diluted in LI-COR Block containing 0.05% Tween. The plates were washed with PBS-0.05% Tween20, 100 μL PBS was added to each well, and the plates were read on a LI-COR Aerius fluorescent plate reader. The phospho-RET signal was normalized to the GAPDH signal. […] The IC50 value is the point where the curve crosses 50 POC.

[3] = target: human KDR protein in HEK-293 cells (Homo sapiens (Human), UniProt P35968); test: KDR Cell Assay (phospho-KDR in HEK-293 cells expressing inducible KDR); format: cell-based; conditions: pKDR Cell HEK 10% FBS IC50, HEK-293 cells expressing inducible KDR, VEGF stimulated
How it was run: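 HEK-293 cells with inducible human KDR were treated with compound for 1 h in DMEM (0.25% DMSO final), then lysed. Phospho-KDR was quantified by Meso Scale immunoassay, expressed as percent of control, and IC50 taken where a 4-parameter logistic fit crossed 50 POC.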

[4] = HEK-293 cells expressing Kif5b-RET, read-out: KIF5B-RET pTYR1062 Cell IC50

Kif5b-RET fusion protein in HEK-293 cells, sequence (P07949 29-1114 limits assumed): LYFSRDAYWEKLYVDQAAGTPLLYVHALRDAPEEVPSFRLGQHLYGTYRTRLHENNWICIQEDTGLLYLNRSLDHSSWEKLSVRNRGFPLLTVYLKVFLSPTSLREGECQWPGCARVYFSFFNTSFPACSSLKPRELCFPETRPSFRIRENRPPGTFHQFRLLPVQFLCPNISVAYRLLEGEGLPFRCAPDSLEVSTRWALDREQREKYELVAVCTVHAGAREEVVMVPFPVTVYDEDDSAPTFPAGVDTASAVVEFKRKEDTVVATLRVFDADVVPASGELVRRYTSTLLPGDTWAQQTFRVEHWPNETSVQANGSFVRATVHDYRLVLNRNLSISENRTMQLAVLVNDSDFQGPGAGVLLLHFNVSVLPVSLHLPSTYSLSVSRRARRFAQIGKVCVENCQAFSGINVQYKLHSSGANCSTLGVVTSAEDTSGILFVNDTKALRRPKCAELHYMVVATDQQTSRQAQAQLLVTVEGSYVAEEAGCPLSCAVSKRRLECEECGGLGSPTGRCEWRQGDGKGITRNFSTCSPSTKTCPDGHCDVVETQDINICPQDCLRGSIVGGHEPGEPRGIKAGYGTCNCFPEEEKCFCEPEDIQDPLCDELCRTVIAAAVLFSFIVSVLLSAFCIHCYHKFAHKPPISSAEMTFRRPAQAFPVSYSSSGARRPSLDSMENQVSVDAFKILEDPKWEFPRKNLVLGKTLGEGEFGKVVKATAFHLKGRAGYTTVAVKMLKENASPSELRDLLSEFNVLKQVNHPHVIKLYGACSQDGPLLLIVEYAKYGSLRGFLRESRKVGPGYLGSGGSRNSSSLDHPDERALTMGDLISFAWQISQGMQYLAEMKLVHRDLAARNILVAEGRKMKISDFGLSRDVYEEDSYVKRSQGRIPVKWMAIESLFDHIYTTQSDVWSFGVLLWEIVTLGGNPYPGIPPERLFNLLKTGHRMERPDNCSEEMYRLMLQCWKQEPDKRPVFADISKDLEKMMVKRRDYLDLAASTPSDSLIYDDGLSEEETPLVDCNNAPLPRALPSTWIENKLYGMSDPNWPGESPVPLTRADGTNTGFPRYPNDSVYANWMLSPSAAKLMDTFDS
human KDR protein in HEK-293 cells, sequence (P35968 20-1356): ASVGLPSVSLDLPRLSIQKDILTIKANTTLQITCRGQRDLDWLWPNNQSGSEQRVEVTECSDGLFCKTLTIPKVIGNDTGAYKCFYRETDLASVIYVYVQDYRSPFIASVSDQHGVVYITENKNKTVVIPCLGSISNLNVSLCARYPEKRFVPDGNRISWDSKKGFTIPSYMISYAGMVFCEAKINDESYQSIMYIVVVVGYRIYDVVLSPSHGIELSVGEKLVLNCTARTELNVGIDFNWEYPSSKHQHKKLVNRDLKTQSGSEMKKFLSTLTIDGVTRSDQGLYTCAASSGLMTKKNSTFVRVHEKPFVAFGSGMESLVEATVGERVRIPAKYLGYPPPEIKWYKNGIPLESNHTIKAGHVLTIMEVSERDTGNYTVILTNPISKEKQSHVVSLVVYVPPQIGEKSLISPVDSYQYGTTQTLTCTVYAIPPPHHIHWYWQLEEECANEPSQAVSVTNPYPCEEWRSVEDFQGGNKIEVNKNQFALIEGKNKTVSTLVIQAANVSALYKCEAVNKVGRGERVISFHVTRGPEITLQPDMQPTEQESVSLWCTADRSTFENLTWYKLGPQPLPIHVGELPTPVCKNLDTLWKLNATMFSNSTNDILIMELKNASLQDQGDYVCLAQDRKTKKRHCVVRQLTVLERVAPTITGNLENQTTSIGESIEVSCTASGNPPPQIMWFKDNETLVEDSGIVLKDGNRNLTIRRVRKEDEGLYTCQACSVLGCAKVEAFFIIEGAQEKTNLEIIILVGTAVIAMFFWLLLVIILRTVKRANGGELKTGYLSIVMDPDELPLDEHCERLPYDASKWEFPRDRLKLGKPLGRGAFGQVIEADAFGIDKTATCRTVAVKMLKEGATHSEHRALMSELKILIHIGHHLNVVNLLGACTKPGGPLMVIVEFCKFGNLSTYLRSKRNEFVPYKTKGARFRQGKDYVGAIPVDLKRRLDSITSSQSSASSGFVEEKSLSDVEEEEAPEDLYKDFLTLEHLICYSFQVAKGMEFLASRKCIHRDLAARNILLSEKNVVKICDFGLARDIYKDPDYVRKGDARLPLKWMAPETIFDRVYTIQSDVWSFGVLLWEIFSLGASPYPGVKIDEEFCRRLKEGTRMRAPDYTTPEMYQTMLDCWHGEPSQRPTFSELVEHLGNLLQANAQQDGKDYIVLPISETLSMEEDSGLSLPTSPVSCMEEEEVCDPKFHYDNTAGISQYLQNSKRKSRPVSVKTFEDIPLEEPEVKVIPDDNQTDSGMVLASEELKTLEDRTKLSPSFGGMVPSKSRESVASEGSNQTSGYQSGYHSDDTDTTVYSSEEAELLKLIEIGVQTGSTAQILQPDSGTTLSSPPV
N-terminal GST tagged recombinant human RET cytoplasmic domain (aa 658-end), wild type RET kinase, sequence (P07949 658-1114): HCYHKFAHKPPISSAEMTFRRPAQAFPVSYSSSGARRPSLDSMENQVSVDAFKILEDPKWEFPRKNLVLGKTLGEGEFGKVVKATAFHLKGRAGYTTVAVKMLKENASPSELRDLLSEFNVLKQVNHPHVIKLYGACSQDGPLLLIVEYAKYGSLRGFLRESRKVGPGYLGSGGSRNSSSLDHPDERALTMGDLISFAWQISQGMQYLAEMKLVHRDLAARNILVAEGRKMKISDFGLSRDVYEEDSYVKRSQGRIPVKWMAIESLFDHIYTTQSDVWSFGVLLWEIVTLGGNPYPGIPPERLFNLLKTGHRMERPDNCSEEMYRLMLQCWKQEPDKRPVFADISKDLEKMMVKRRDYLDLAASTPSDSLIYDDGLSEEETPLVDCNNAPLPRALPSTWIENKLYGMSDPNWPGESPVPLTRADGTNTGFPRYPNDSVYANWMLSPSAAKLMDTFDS

| IC50 ([1]; wild type RET, 1 mM ATP) [nM] | IC50 ([3]; 10% FBS) [nM] | Structure (SMILES) | further results |
| --- | --- | --- | --- |
| 19.4 |  | COc1ccc(CN2CCN(c3ccc(-c4cc(-c5cnn(CC(C)CO)c5)cn5ncc(C#N)c45)cn3)CC2)cn1 (stereo in doubt) [Example 708, (S)-6-(1-(3-hydroxy-2-methylpropyl)-1H-pyrazol-4-yl)-4-(6-(4-((6-methoxypyridin-3-yl)methyl)piperazin-1-yl)pyridin-3-yl)pyrazolo[1,5-a]pyridine-3-carbonitrile] | IC50 [2, 4]: 7 nM |
| 35.8 |  | Cn1cc(-c2cc(-c3ccc(N4CCN(C(=O)OC(C)(C)C)CC4)nc3)c3c(C#N)cnn3c2)cn1 [Example 1, tert-butyl 4-(5-(3-cyano-6-(1-methyl-1H-pyrazol-4-yl)pyrazolo[1,5-a]pyridin-4-yl)pyridin-2-yl)piperazine-1-carboxylate] | IC50 ([2]; HEK-293 cells expressing Kif5b-RET, phospho-RET(Tyr1062), read-out: KIF5B-RET pTYR1062 Cell IC50): 47.5 nM |
| 345 |  | Cc1cnn2cc(-c3cnn(C)c3)cc(-c3ccc(N4CCN(C(=O)OC(C)(C)C)CC4)nc3)c12 [Example 650, tert-butyl 4-(5-(3-methyl-6-(1-methyl-1H-pyrazol-4-yl)pyrazolo[1,5-a]pyridin-4-yl)pyridin-2-yl)piperazine-1-carboxylate] |  |
| 242 |  | CC(C)NC(=O)[C@H]1CCCN(c2ccc(-c3cc(-c4cnn(C)c4)cn4ncc(C#N)c34)cn2)C1 [Example 230, (S)-1-(5-(3-cyano-6-(1-methyl-1H-pyrazol-4-yl)pyrazolo[1,5-a]pyridin-4-yl)pyridin-2-yl)-N-isopropylpiperidine-3-carboxamide] |  |
| 1500 |  | Cc1cc(-c2cc(-c3cnn(C)c3)cn3ncc(C#N)c23)cnc1N1CCN(C(=O)OC(C)(C)C)CC1 [Example 275, tert-Butyl 4-(5-(3-cyano-6-(1-methyl-1H-pyrazol-4-yl)pyrazolo[1,5-a]pyridin-4-yl)-3-methylpyridin-2-yl)piperazine-1-carboxylate] |  |
| 208 |  | Cc1cnn2cc(-c3cnn(C)c3)cc(-c3ccc(N4CCNCC4)nc3)c12 [Example 651, 3-methyl-6-(1-methyl-1H-pyrazol-4-yl)-4-(6-(piperazin-1-yl)pyridin-3-yl)pyrazolo[1,5-a]pyridine] |  |
| 395 |  | Cc1cc(-c2cc(-c3cnn(C)c3)cn3ncc(C#N)c23)cnc1N1CCNCC1 [Example 276, 6-(1-methyl-1H-pyrazol-4-yl)-4-(5-methyl-6-(piperazin-1-yl)pyridin-3-yl)pyrazolo[1,5-a]pyridine-3-carbonitrile dihydrochloride] |  |
| 656 |  | Cn1cc(-c2cc(-c3ccc(N4CCN(C(=O)OC(C)(C)C)CC4)nc3)c3c(Br)cnn3c2)cn1 [Example 649, tert-butyl 4-(5-(3-bromo-6-(1-methyl-1H-pyrazol-4-yl)pyrazolo[1,5-a]pyridin-4-yl)pyridin-2-yl)piperazine-1-carboxylate] |  |
| 318 |  | Cc1cc(-c2cc(-c3cnn(C)c3)cn3ncc(C#N)c23)cnc1N1CCN(C(=O)CC(C)(C)C)CC1 [Example 279, 4-(6-(4-(3,3-dimethylbutanoyl)piperazin-1-yl)-5-methylpyridin-3-yl)-6-(1-methyl-1H-pyrazol-4-yl)pyrazolo[1,5-a]pyridine-3-carbonitrile] |  |
| 300 |  | Cc1cc(-c2cc(-c3cnn(C)c3)cn3ncc(C#N)c23)cnc1N1CCN(C(=O)CC(C)(C)O)CC1 [Example 277, 4-(6-(4-(3-hydroxy-3-methylbutanoyl)piperazin-1-yl)-5-methylpyridin-3-yl)-6-(1-methyl-1H-pyrazol-4-yl)pyrazolo[1,5-a]pyridine-3-carbonitrile] |  |
| 334 |  | CC(C)NC(=O)[C@@H]1CCCN(c2ccc(-c3cc(-c4cnn(C)c4)cn4ncc(C#N)c34)cn2)C1 [Example 229, (R)-1-(5-(3-cyano-6-(1-methyl-1H-pyrazol-4-yl)pyrazolo[1,5-a]pyridin-4-yl)pyridin-2-yl)-N-isopropylpiperidine-3-carboxamide] |  |
|  |  | Cn1cc(-c2cc(-c3ccc(N4CCNCC4)nc3)c3ccnn3c2)cn1 [Example 312, 6-(1-methyl-1H-pyrazol-4-yl)-4-(6-(piperazin-1-yl)pyridin-3-yl)pyrazolo[1,5-a]pyridine dihydrochloride] | IC50 [1]: 607 nM |
|  |  | COc1ccc(CN2CCN(c3ccc(-c4cc(-c5cnn(C(F)F)c5)cn5ncc(C#N)c45)cn3)CC2)cn1 [Example 696, 6-(1-(difluoromethyl)-1H-pyrazol-4-yl)-4-(6-(4-((6-methoxypyridin-3-yl)methyl)piperazin-1-yl)pyridin-3-yl)pyrazolo[1,5-a]pyridine-3-carbonitrile] | IC50 [2, 4]: 16.1 nM |
|  | 1090 | Cn1cc(-c2cc(-c3ccc(N4CCN(C(=O)CC(C)(C)O)C5(CC5)C4)nc3)c3c(C#N)cnn3c2)cn1 [Example 168, 4-(6-(4-(3-hydroxy-3-methylbutanoyl)-4,7-diazaspiro[2.5]octan-7-yl)pyridin-3-yl)-6-(1-methyl-1H-pyrazol-4-yl)pyrazolo[1,5-a]pyridine-3-carbonitrile] |  |
|  | 1290 | C[C@H]([C@H](O)c1ccccc1)N1CCN(c2ccc(-c3cc(-c4cnn(C)c4)cn4ncc(C#N)c34)cn2)CC1 [Example 147, 4-(6-(4-((1R,2R)-1-hydroxy-1-phenylpropan-2-yl)piperazin-1-yl)pyridin-3-yl)-6-(1-methyl-1H-pyrazol-4-yl)pyrazolo[1,5-a]pyridine-3-carbonitrile] |  |
|  | 164 | Cn1cc(-c2cc(-c3ccc(N4CCN(C[C@H](O)c5cccc(Cl)c5)CC4)nc3)c3c(C#N)cnn3c2)cn1 [Example 153, (R)-4-(6-(4-(2-(3-chlorophenyl)-2-hydroxyethyl)piperazin-1-yl)pyridin-3-yl)-6-(1-methyl-1H-pyrazol-4-yl)pyrazolo[1,5-a]pyridine-3-carbonitrile] |  |
|  | 404 | Cn1cc(-c2cc(-c3ccc(N4CCN(C(=O)C5(c6cccc(F)c6)CC5)CC4)nc3)c3c(C#N)cnn3c2)cn1 [Example 349, 4-(6-(4-(1-(3-fluorophenyl)cyclopropanecarbonyl)piperazin-1-yl)pyridin-3-yl)-6-(1-methyl-1H-pyrazol-4-yl)pyrazolo[1,5-a]pyridine-3-carbonitrile] |  |
|  |  | CCN1CCN(c2ccc(-c3cc(-c4cnn(C)c4)cn4ncc(C#N)c34)cn2)CC1 [Example 409, 4-(6-(4-ethylpiperazin-1-yl)pyridin-3-yl)-6-(1-methyl-1H-pyrazol-4-yl)pyrazolo[1,5-a]pyridine-3-carbonitrile] | IC50 [3]: 1670 nM |
|  |  | Cn1cc(-c2cc(-c3ccc(N4CCC5(CN(Cc6ccccc6)C5)C4)nc3)c3c(C#N)cnn3c2)cn1 [Example 558, 4-(6-(2-benzyl-2,6-diazaspiro[3.4]octan-6-yl)pyridin-3-yl)-6-(1-methyl-1H-pyrazol-4-yl)pyrazolo[1,5-a]pyridine-3-carbonitrile] | IC50 [3]: 548 nM |
|  | 229 | CO[C@H]1CCN(C(=O)N2CCN(c3cnc(-c4cc(-c5cnn(C)c5)cn5ncc(C#N)c45)cn3)CC2)C1 [Example 289, (S)-4-(5-(4-(3-methoxypyrrolidine-1-carbonyl)piperazin-1-yl)pyrazin-2-yl)-6-(1-methyl-1H-pyrazol-4-yl)pyrazolo[1,5-a]pyridine-3-carbonitrile] |  |

| Structure (SMILES) | IC50 ([1]; wild type RET, 1 mM ATP) [nM] | IC50 ([3]; 10% FBS) [nM] | further results |
| --- | --- | --- | --- |
| CCc1nn(CC)cc1-c1cc(-c2ccc(N3CCN(Cc4ccccc4)CC3)nc2)c2c(C#N)cnn2c1 [Example 615, 4-(6-(4-benzylpiperazin-1-yl)pyridin-3-yl)-6-(1,3-diethyl-1H-pyrazol-4-yl)pyrazolo[1,5-a]pyridine-3-carbonitrile] | 60 |  | IC50 [2]: 117 nM |
| Cn1cc(-c2cc(-c3ccc(N4CCN(C(=O)Cc5c(F)cccc5F)CC4)nc3)c3c(C#N)cnn3c2)cn1 [Example 39, 4-(6-(4-(2-(2,6-difluorophenyl)acetyl)piperazin-1-yl)pyridin-3-yl)-6-(1-methyl-1H-pyrazol-4-yl)pyrazolo[1,5-a]pyridine-3-carbonitrile 2,2,2-trifluoroacetate] |  | 83.9 |  |
| Cn1cc(-c2cc(-c3ccc(N4CC5CCC(C4)N5)nc3)c3c(C#N)cnn3c2)cn1 [Example 174, 4-(6-(3,8-diazabicyclo[3.2.1]octan-3-yl)pyridin-3-yl)-6-(1-methyl-1H-pyrazol-4-yl)pyrazolo[1,5-a]pyridine-3-carbonitrile dihydrochloride] |  | 1220 |  |
| Cn1cc(-c2cc(-c3ccc(N4CCN(C(=O)[C@H](N)c5ccccc5)CC4)nc3)c3c(C#N)cnn3c2)cn1 [Example 48, (R)-4-(6-(4-(2-amino-2-phenylacetyl)piperazin-1-yl)pyridin-3-yl)-6-(1-methyl-1H-pyrazol-4-yl)pyrazolo[1,5-a]pyridine-3-carbonitrile bis(2,2,2-trifluoroacetate)] |  | 612 |  |
| Cn1cc(-c2cc(-c3ccc(N4CCN(C(=O)NC5CC5)CC4)nc3)c3c(C#N)cnn3c2)cn1 [Example 131, 4-(5-(3-cyano-6-(1-methyl-1H-pyrazol-4-yl)pyrazolo[1,5-a]pyridin-4-yl)pyridin-2-yl)-N-cyclopropylpiperazine-1-carboxamide 2,2,2-trifluoroacetate] |  | 447 |  |
